The target in one test is human YKL-40 (Homo sapiens (Human), UniProt P36222). Put plainly: Human YKL-40 direct binding assay based on MicroScale Thermophoresis (MST). Particulars: by MST and competitive AlphaScreen for chitin binding site; depends on ligand length, sulphation, Mg2+. In general terms: In MST a laser heats a spot of the sample, and binding alters the fluorescence response.
Test [1] concerns the target YKL-40 (YKL-40: heparan sulfate interaction) (Homo sapiens (Human), UniProt P36222). Put plainly: YKL-40:HS assay, heparan sulfate interference AlphaScreen. Conditions: read-out: YKL-40:HS, IC50/max % inh (max % inh). A general note: Bead proximity is the source of the signal in Alpha formats.
Experimental: Positive and negative control wells received just 8 uL of MST buffer containing 2% DMSO without inhibitor in the 2nd step (ii). In addition, negative control received just 8 uL of MST buffer containing 0% DMSO without YKL-40-histag in the 3nd step (iii). Finally, the plate luminescence was excited at 680 nm and the emission read at 520-620 nm using the AlphaScreen module in the The Spark™ 1 μM multimode microplate reader (Tecan Trading AG, Mannedorf, Switzerland). Inhibition percentage and IC50 values were determined using GraphPad Prism 7.0 software (GraphPad Software, San Diego, CA, USA).

Where a name gives a salt, the structure may show the parent alone.

Sequence of YKL-40 (YKL-40: heparan sulfate interaction) (P36222 22-383): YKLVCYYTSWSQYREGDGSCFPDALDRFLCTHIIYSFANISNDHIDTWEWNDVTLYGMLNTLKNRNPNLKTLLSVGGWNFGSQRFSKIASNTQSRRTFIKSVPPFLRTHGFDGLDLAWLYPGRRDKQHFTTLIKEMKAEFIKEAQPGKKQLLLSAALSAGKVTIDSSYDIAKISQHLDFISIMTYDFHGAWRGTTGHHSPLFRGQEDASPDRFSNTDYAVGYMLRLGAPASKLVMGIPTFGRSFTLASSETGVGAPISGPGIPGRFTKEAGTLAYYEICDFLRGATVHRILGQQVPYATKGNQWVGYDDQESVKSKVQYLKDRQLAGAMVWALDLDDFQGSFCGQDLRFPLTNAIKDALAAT
Sequence of human YKL-40 (P36222 22-383): as above

With heparin sodium salt, the “binding affinity to YKL-40 (in words)” value on human YKL-40 was “high nM affinity”.

For `Cc1cnc(N2CCC(N3C[C@H](C)OC[C@@H]3Cc3ccc(Cl)cc3)CC2)s1` [Compound 185, (2S,5S)-5-(4-chlorobenzyl)-2-methyl-4-(1-(5-methylthiazol-2-yl)piperidin-4-yl)morpholine 2,2,2-trifluoroacetate], the inhibition in test [1] was 36%.

For `Cc1nc(N2CCC(N3C[C@H](C)OC[C@@H]3Cc3ccc(Cl)cc3)CC2)sc1C` [Compound 183, (2S,5S)-5-(4-chlorobenzyl)-4-(1-(4,5-dimethylthiazol-2-yl)piperidin-4-yl)-2-methylmorpholine 2,2,2-trifluoroacetate], the inhibition in test [1] was determined as 53%.

In the case of `CN1C[C@H](Cc2ccc(Cl)cc2)N(C2CCN(c3cc(Cl)ccn3)CC2)C[C@@H]1CN1CCOCC1` [Compound 51, 4-(((2S,5S)-5-(4-chlorobenzyl)-4-(1-(4-chloropyridin-2-yl)piperidin-4-yl)-1-methyl-piperazin-2-yl)methyl)morpholine hydrochloride], in test [1], the inhibition was 52%.

In the case of `CNC(=O)CN1C[C@H](Cc2ccc(Cl)cc2)N(C2CCN(c3ccccn3)CC2)C[C@@H]1CC(C)C` [Compound 95, 2-((2S,5S)-5-(4-chlorobenzyl)-2-isobutyl-4-(1-(pyridin-2-yl)piperidin-4-yl)piperazin-1-yl)-N-methylacetamide 2,2,2-trifluoroacetate], in test [1], the inhibition is 85%.

On to `CNC(=O)CN1C[C@H](Cc2ccc(Cl)cc2)N(C2CCN(c3ccccn3)CC2)C[C@@H]1C(C)C` [Compound 106, 2-((2S,5S)-5-(4-chlorobenzyl)-2-isopropyl-4-(1-(pyridin-2-yl)piperidin-4-yl)piperazin-1-yl)-N-methylacetamide 2,2,2-trifluoroacetate], for which the inhibition in test [1] came out at 27%.

`CN1C[C@H](Cc2ccc(Cl)cc2)N(C2CCN(c3cc(Cl)ccn3)CC2)C[C@@H]1Cn1ccnc1` [Compound 82, (2R,5S)-2-((1H-imidazol-1-yl)methyl)-5-(4-chlorobenzyl)-4-(1-(4-chloropyridin-2-yl)piperidin-4-yl)-1-methylpiperazine hydrochloride]: in test [1], the inhibition turned out to be 75%.

For `CN1C[C@H](Cc2ccc(Cl)cc2)N(C2CCN(c3ccccn3)CC2)C[C@@H]1Cc1ccc(Cl)cc1` [Compound 63, (2S,5S)-2,5-bis(4-chlorobenzyl)-1-methyl-4-(1-(pyridin-2-yl)piperidin-4-yl)piperazine 2,2,2-trifluoroacetate], the inhibition in test [1] was determined as 85%.

Turning to `Cc1ccnc(N2CCC(N3C[C@H](C)OC[C@@H]3Cc3ccc(Cl)cc3)CC2)c1F` [Compound 112, (2S,5S)-5-(4-chlorobenzyl)-4-(1-(3-fluoro-4-methylpyridin-2-yl)piperidin-4-yl)-2-methylmorpholine 2,2,2-trifluoroacetate], the inhibition in test [1] amounted to 30%.
